# In patent publication US20210246202A1, “TREATMENTS RELATED TO GH/IGF-1 AXIS INHIBITION” (UNIVERSITY OF SOUTHERN CALIFORNIA, priority 2010, published 2021):
# How the values were obtained:
# [1] = system: pancreatic carcinoma cells; details: Mol Cancer Ther May 2009 8:1095-1105; cited from earlier work
# human GH = human GH (Homo sapiens, UniProt P01241); experiment: Slot blot of anti-huGH activity in serum from mice immunized with huGH; type: in vivo, mouse; details: slot blot on immobilized human GH
# [2] = Body weight of mice immunized with huGH; type: in vivo, mouse; details: 20 male and 20 female mice immunized with huGH
# From the text: FIG. 13A provides a plot of body weight of mice immunized with human Growth Hormone (huGH) (20 male and 20 female) versus time.
# This figure provides a plot of body weight of mice immunized with human Growth Hormone (huGH) (20 male and 20 female) versus time.
# [3] = system: chemotherapy side effects; experiment: Short term immunization with human GH before cyclophosphamide treatment (body weight, complete blood count); type: in vivo, mouse; details: cyclophosphamide i.p., 300 mg/kg, body weight and CBC 7-days after CP
# Description: FIG. 14A provides plots of the body weight of mice with short term immunization (STI) with human GH (half-filled arrowheads) after cyclophosphamide treatment (cyclophosphamide (CP) i.p., 300 mg/kg, indicated by the solid arrowhead)(Sham means treated with buffer and no chemo);
# FIG. 14B provides a histogram of the complete blood count (CBC) 7-days after CP treatment (Data are presented as percentage of pre-chemo value);
# FIG. 14A provides plots of the body weight of mice with short term immunization (STI) with human GH (half-filled arrowheads) after cyclophosphamide treatment (cyclophosphamide (CP) i.p., 300 mg/kg, indicated by solid arrowheads). FIG. 14B provides a histogram of the complete blood count (CBC) 7-days after CP treatment (Data are presented as percentage of pre-chemo value).
# primary glial cells = experiment: 24 hour LDH release from primary glial cells treated with IGFBP1; type: cell-based
# Description: FIG. 17 provides a plot of the 24 hour lactate dehydrogenase (LDH) release from the treatment of primary glial cells with the IGF-I inhibitor insulin-like growth factor-binding protein 1 (IGFBP1) and with insulin-like growth factor-binding protein 2 (IGFBP2). […] IGFBP1 is a strong IGF-I inhibitor. Other IGFBPs can even increase IGF-I signaling.
# Sequence of human GH (P01241 27-217): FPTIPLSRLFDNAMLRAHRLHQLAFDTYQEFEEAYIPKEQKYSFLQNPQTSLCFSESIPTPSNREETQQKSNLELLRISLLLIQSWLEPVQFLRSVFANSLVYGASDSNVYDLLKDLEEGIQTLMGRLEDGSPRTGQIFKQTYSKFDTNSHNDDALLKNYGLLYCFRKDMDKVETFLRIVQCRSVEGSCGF
molecule,measurement,setting,value
AMG 479: a fully human anti-insulin-like growth factor receptor type I monoclonal antibody,effect on growth and survival of pancreatic carcinoma cells,[1],inhibits the growth and survival of pancreatic carcinoma cells
human Growth Hormone [huGH],immunized mice showing strong anti-huGH activity in serum,human GH,34 out of 40
same,body weight of immunized mice,[2],Lower body weight
same,effect against chemotherapy side effects,[3],protective effect against chemotherapy side effects
"insulin-like growth factor-binding protein 1 (protein, UniProt P08833 26-259, looked up) Insulin-like growth …: APWQCAPCSAEKLALCPPVSASCSEVTRSAGCGCCPMCALPLGAACGVATARCARGLSCRALPGEQQPLHALTRGQGACVQESDASAPHAAEAGSPESPESTEITEEELLDNFHLMAPSEEDHSILWDAISTYDGSKALHVTNIKKWKEPCRIELYRVVESLAKAQETSGEEISKFYLPNCNKNGFYHSRQCETSMDGEAGLCWCVYPWNGKRIPGSPEIRGDPNCQIYFNVQN",protection against oxidative damage (LDH release),primary glial cells,protects them against oxidative damage
